The record followed here is patent publication US10166237B2, “Compounds and methods for inducing chondrogenesis” (The Scripps Research Institute, priority 2011, dated 2019).

The subject of test [1] is human mesenchymal stem cells (hMSCs). Kind of test: chondrogenic nodule formation by hMSCs (high throughput screen). The test is classed as cell-based. The conditions noted are these: Homo sapiens, Mesenchymal stem cells; first value of the cell (before the slash); read-out: CHONDROGENIC μM EC50. In outline:
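Primary hMSCs (10^4/well) in serum-free DMEM exposed to compounds at 5 μM for 4 days. Chondrogenic nodules stained with Nile red (binds collagens) and counted by high-content imaging with 488 laser excitation. In 96-well follow-up, 50,000 cells/well treated 4 days, formalin-fixed, stained with 1 μg/ml Rhodamine B.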

Test [2] deals with primary bovine chondrocytes. Kind of test: inhibition of cytokine-induced nitric oxide release (Greiss reaction). The following applies: Bos taurus, Chondrocyte; second value of the cell (after the slash); TNFα and oncostatin M, 48 hours; read-out: NO INHIBTION μM IC50. The test is classed as cell-based. An excerpt: (§1) In the screen, hMSCs were used as a surrogate to future targeting of the resident MSCs with the cartilage joint. It was in that setting upon which we identified PRO1. In a joint injury, the primary cell type a therapeutic would have contact with is the chondrocyte. Although cartilage or chondrocyte-targeted screening has not lead to the development of a successful drug modifying osteoarthritis drug (DMOAD) to date, it is believed that a stem cell-based therapeutic would protect and even repair the existing chondrocytes. Therefore, protection of the articular chondrocytes and cartilage from a mature bovine knee was assessed. PRO1 and its analogues were incubated with primary bovine chondrocytes or cartilage explants cultures grown in the presence of TNFα and oncostatin M to mimic the cytokine-induced damage that can occur during OA. In the presence of the cytokine cocktail, in vitro cultured primary chondrocytes released 4-5 fold more nitric oxide (NO) than the untreated chondrocytes (50 μM vs 10 μM) as measured by the Greiss reaction. In cells treated with the cytokine cocktail and PRO1, the small molecule could effectively block the release of NO by up to 70% FIG. 2C). Similarly, in ex vivo treated cartilage explants, cytokine-induced release of glycosaminoglycans (GAG) was reduced by up to 60% by PRO1 (FIG. 2D). Finally, hMSC were grown in pellet culture for 21 days.
(§2) Primary hMSCs were plated (10,000/well) in 384-well plates and cultured for 18 days. The cells were fixed with 4% formalin, permeabilized with triton (0.5%), digested with 0.5 mg/ml collagenase II to unwind the collagen fibrils, and then immunostained with an antibody recognizing type II collagen. DAPI (2 μg/ml) was added to visualize the nuclei. The chondrogenic nodules stained positive for type II collagen but lacked expression of type X collagen and osteocalcin, markers for chondrocyte hypertrophy and osteoblasts, respectively (not shown). 10,000 hMSCs (passages 3-5) were plated in Greiner 384-well low-bottom plates on day 1. The cells were allowed to adhere and stimulated for 48 hrs (days 2-3) with the indicated stimuli in MSC growth media (Millipore). The media was then removed and replaced with serum-free DMEM for an additional 16 days. This media was replenished on days 10 and 15 of the assay. Primary bovine chondrocytes were isolated from the articular surfaces from mature knees. After one week of culture, 8,500 cells were trypsinized and plated in Greiner 384-well white clear-bottom plates in growth media. […] 20 μl of the supernatant was mixed with 20 μl of the Greiss reagent and quantitated at 540 nm as described by the Promega kit instructions. Bovine cartilage explants (cut in circular explants in a 96 well plate) were cultured in the presence of 20 ng/ml TNFα and 10 ng/ml oncostatin M to induce GAG release for 72 hours (FIG. 2D). PRO1 was added at the indicated concentrations during the entire 72 hrs. […] Parafin sections were hydrated, incubated in low pH Antigen unmasking solution (Vector) at 90 C for 10 minutes, permeabilized with 0.1% collagenase II (only for the sections stained with type II collagen) for 10 minutes, blocked with CAS block for 10 minutes and then incubated with the primary antibody (type II collagen, aggrecan or Timp1) antibody (Abcam) overnight at 4 C. The antigens were visualized through standard ABC detection methods and developed with DAB. Representative of 3 sections stained/treatment group (independent experiments).

Another test deals with hMSCs. The experiment in a line: type II collagen expression in hMSC cultures (18 day assay). The test is classed as cell-based, human. The following applies: for EC50: Homo sapiens. The protocol: The chondrogenic differentiation event was initiated quickly even though a fully differentiated chondrocyte phenotype cannot be assessed prior to 14 days in culture. In an 18 day assay, compound treatment was only required for the first 48 hrs and followed by removal and replacement of the media (in the absence of stimuli, FIG. 2B). The promotion of chondrogenic differentiation was not altered or enhanced upon longer treatment with the stimuli (data not shown).
as §2

Test [3] concerns bovine cartilage explants. Kind of test: cytokine-induced GAG release from cartilage explants ex vivo. The test is classed as cell-based. The following applies: 1 μM (or less); compared with PRO1.
From the text: as §1, with “In cells treated with the cytokine cocktail and PRO1, the small molecule could effectively block the release of NO by up to 70% FIG. 2C). Similarly, in ex vivo treated cartilage explants, cytokine-induced release of glycosaminoglycans (GAG) was reduced by up to 60% by PRO1 (FIG. 2D). Finally, hMSC were grown in pellet culture for 21 days.” left out
Primary hMSCs were plated (10,000/well) in 384-well plates and cultured for 18 days. […] 20 μl of the supernatant was mixed with 20 μl of the Greiss reagent and quantitated at 540 nm as described by the Promega kit instructions. […]

Some results are limits rather than exact numbers.

In the case of `N#Cc1ccc(NC(=O)c2ccccc2C(=O)O)cc1` [AKT-CN], the EC50 – broadly, the concentration giving half of the maximal effect – in test [1] was found to be 0.137 µM; in the test with hMSCs it was 0.108 µM. In addition, the IC50 (commonly the midpoint of a concentration-inhibition curve) in test [2] was determined as 0.03 µM. Further, the “induction of chondrogenic differentiation of hMSCs” value with hMSCs (compared with known inducers TGFβ3, BMP7 or BMP2, FIG. 2B) is “more potent and efficient”.
As to `O=C(O)c1cc(F)ccc1C(=O)Nc1ccc(-c2ccccc2)cc1` [AKT-F], the EC50 (in test [1]; in the test on hMSCs) was greater than 10 µM in each case. The IC50 in test [2] is greater than 10 µM.
Take `Cc1ccc(C(=O)Nc2ccc(-c3ccccc3)cc2)c(C(=O)O)c1` [AKT-Me]: the EC50 (in test [1]; in the test with hMSCs) was greater than 10 µM in each case. Moreover, the IC50 in test [2] was greater than 10 µM.
Turning to `CCNC(=O)c1ccccc1C(=O)O` [AKT-NHEt], the figures for the EC50 (in test [1]; with hMSCs) were 2.01 µM and greater than 10 µM, respectively. Moreover, the IC50 in test [2] was greater than 10 µM.
In the case of `CNC(=O)c1ccccc1C(=O)O` [AKT-NHMe], the EC50 was determined as 2.7 µM in test [1] and 0.24 µM in the test on hMSCs. The IC50 in test [2] was found to be 0.0046 µM.
As to `CC(C)CNC(=O)c1ccccc1C(=O)Nc1ccc(-c2ccccc2)cc1` [AKT-iPr], the results for the EC50 (in test [1]; with hMSCs) were 0.0015 µM and 6.98 µM, respectively. The IC50 in test [2] is greater than 10 µM.
`O=C(O)c1ccccc1C(=O)Nc1ccc(C(F)(F)F)cc1` [Compound L4, 2-((4-(trifluoromethyl)phenyl)carbamoyl)benzoic acid]: the results for the EC50 (in test [1]; in the test with hMSCs) were 9.5 µM and 11.1 µM, respectively. For the same molecule, in test [2], the IC50 came to 22.1 µM.
`Cc1cncc(NC(=O)c2ccccc2C(=O)O)c1` [Compound L5]: the EC50 in test [1] was 0.6 µM; in the test on hMSCs, greater than 10 µM. Also, in test [2], the half-inhibitory concentration (IC50) worked out at 2.4 µM.
As to `Cc1ccc(NC(=O)c2ccccc2C(=O)O)cn1` [Compound L6], the EC50 (in test [1]; with hMSCs) was greater than 10 µM in each case. In addition, in test [2], the IC50 is greater than 10 µM.
As to `O=C(O)c1ccccc1C(=O)Nc1ccc(I)cc1` [Compound L11a, 2-((4-iodophenyl)carbamoyl)benzoic acid], the EC50 (in test [1]; in the test with hMSCs) was greater than 10 µM throughout. Also, the IC50 in test [2] was greater than 10 µM.
As for `O=C(O)c1ccccc1C(=O)Nc1ccc(CCO)cc1` [Compound L11c, 2-((4-(2-hydroxyethyl)phenyl)carbamoyl)benzoic acid], the EC50 in test [1] was 0.125 µM; with hMSCs, greater than 10 µM. For the same molecule, the IC50 in test [2] is greater than 10 µM.
As to `N#CCc1ccc(NC(=O)c2ccccc2C(=O)O)cc1` [Compound L13], the EC50 (in test [1]; in the test with hMSCs) was greater than 10 µM in each case. In test [2], the IC50 was greater than 10 µM.
As for `O=C(O)c1cc(S(=O)(=O)c2ccc(C(=O)Nc3ccc(-c4ccccc4)cc3)c(C(=O)O)c2)ccc1C(=O)Nc1ccc(-c2ccccc2)cc1` [LK4], the EC50 in test [1] came out at 3.8 µM; with hMSCs, 33.3 µM. The IC50 in test [2] is greater than 10 µM.
With `O=C(O)c1ccccc1C(=O)Nc1ccc(N2CCOCC2)cc1` [LK6, 2-((4-morpholinophenyl)carbamoyl)benzoic acid], the results for the EC50 (in test [1]; with hMSCs) were 9.1 µM and greater than 10 µM, respectively. Moreover, in test [2], the IC50 was greater than 10 µM.
In the case of `O=C(O)c1ccccc1C(=O)Nc1ccc(Nc2ccccc2)cc1` [LK7], the EC50 (in test [1]; in the test on hMSCs) was greater than 10 µM each time. In test [2], the IC50 was greater than 10 µM.
In the case of `NS(=O)(=O)c1ccc(NC(=O)c2ccccc2C(=O)O)cc1` [LK8], the results for the EC50 (in test [1]; in the test with hMSCs) were 9.1 µM and greater than 10 µM, respectively. The IC50 in test [2] was greater than 10 µM.
With `O=C(O)c1ccccc1C(=O)Nc1ccc(CCCc2ccccn2)cc1` [LK15, 2-((4-(3-(pyridin-2-yl)propyl)phenyl)carbamoyl)benzoic acid], the EC50 in test [1] was 0.12 µM; with hMSCs, greater than 10 µM. For the same molecule, in test [2], the IC50 is greater than 10 µM.
Turning to `O=C(O)c1ccccc1C(=O)Nc1ccc(-c2ccccc2)cc1` [LK18b], the EC50 worked out at 0.0015 µM in test [1] and 0.05 µM in the test with hMSCs. Moreover, the IC50 in test [2] was determined as 2.7 µM.
Consider `Cc1ccc(C(=O)Nc2ccc(C#N)cc2)cc1` [LK20b], for which the EC50 in test [1] was 0.014 µM; in the test with hMSCs, greater than 10 µM. The IC50 in test [2] was greater than 10 µM.
For `O=C(O)c1cc(O)ccc1C(=O)Nc1ccc(-c2ccccc2)cc1` [LK22b, 2-([1,1′-biphenyl]-4-ylcarbamoyl)-5-hydroxybenzoic acid], the EC50 in test [1] was 0.0046 µM; with hMSCs it was greater than 10 µM. The IC50 in test [2] was greater than 10 µM.
Turning to `O=C(O)c1ccccc1C(=O)Nc1ncc(-c2ccc(F)c(F)c2)s1` [LK35], the EC50 (in test [1]; in the test on hMSCs) was greater than 10 µM in each case. The IC50 in test [2] worked out at 0.03 µM.
For `C[C@@H](C(=O)Nc1ccc(Cl)cn1)N1Cc2ccccc2C1=O` [SMA-1*], the results for the EC50 (in test [1]; with hMSCs) were greater than 10 µM and 0.37 µM, respectively. Further, the IC50 in test [2] turned out to be 0.04 µM.

B1: TGFβ3: "known inducers of chondrogenic differentiation (TGFβ3, BMP7 or BMP2)" (protein, UniProt P10600 301-412, looked up)
Transforming growth factor …: ALDTNYCFRNLEENCCVRPLYIDFRQDLGWKWVHEPKGYYANFCSGPCPYLRSADTTHSTVLGLYNTLNPEASASPCCVPQDLEPLTILYYVGRTPKVEQLSNMVVKSCKCS
Consider B1, for which, in test [3], the chondro-protective activities result was “did not have the same degree of chondro-protective activities”.
